“And” between values parts separate entries of the source, which are not always exact repeats. Identical values can stand only once. Like-named read-outs stand apart in the source and are kept apart here.
Experiments:
[1] = target: T1, recombinant human AChE (Homo sapiens, UniProt P22303); assay: Inhibition of AChE (modified Ellman method, Hunter–Downs evaluation); type: biochemical; conditions: for AChE type of inhibition (in words): according to Hunter–Downs plot; for fold higher AChE inhibition potency than meta position counterpart: para compounds 5 and 3 vs meta compounds 4 and 2; for times less potent as inhibitor of AChE than donepezil: compared to donepezil Ki of ref 50; for times less potent as inhibitor of AChE than galantamine: compared to galantamine Ki of ref 50; for AChE Ki: ATCh 0.05–0.50 mM
T1 construct: gift of Dr Florian Nachon (IRBA, Brétigny-sur-Orge, France)
Protocol: All measurements of cholinesterase activity were performed in 0.1 M sodium phosphate buffer (pH 7.4). Acetylthiocholine (ATCh), used as a substrate, and thiol reagent 5,5′-dithiobis (2-nitrobenzoic acid) (DTNB) were purchased from Sigma–Aldrich, St. Louis, MO, USA. ATCh was dissolved in water and DTNB in sodium phosphate buffer. Stock solutions of compounds were prepared in DMSO (Gram-mol, Zagreb, Croatia), and all further dilutions were carried out in water. As the source of AChE and BChE, purified native human BChE and recombinant human AChE, both kindly provided by Dr Florian Nachon (Département de Toxicologie, Armed Forces Biomedical Research Institute (IRBA), Brétigny-sur-Orge, France), were used. Both enzymes were diluted in a phosphate buffer containing 0.1% BSA, while further dilutions were in a phosphate buffer with 0.01% BSA.
Enzyme activity measurements were carried out spectrophotometrically using a slightly modified Ellman method, as previously described. […] At least three inhibitor concentrations were used at each substrate concentration in at least three experiments. To calculate the enzyme inhibitor dissociation constants (Ki), the Hunter–Downs equation and the linear regression analysis were used:Ki,app = (vi∙i)/(v0 − vi) = Ki + Ki/KS s where Ki,app stands for the apparent inhibition constant and KS for the enzyme–substrate dissociation constant.
The final content of DMSO in measurements was up to 0.4%, and inhibitory reactions containing more than 0.1% of DMSO were corrected for control reactions containing a corresponding concentration of DMSO. No side interactions of the tested compounds with ATCh or DTNB were detected. Measurements were performed at 25 °C and wavelength λ = 412 nm on a Tecan Infinite M200Pro (Tecan Austria GmbH, Salzburg, Austria), and for all calculations, the statistical package GraphPadPrism 8 (Graph Pad Inc., San Diego, CA, USA) was used.
The selectivity index (SI) was determined using the following ratio: SI = Ki(AChE)/Ki(BChE).

[2] = ORAC assay (peroxyl radical antioxidant activity); conditions: benzoquinone 50 µM
Protocol: For the determination of antioxidant capacity by ORAC method, the commercially available OxiSelect™ Oxygen Radical Antioxidant Capacity (ORAC) Activity Assay kit was used (cat. no. STA-345, Cell Biolabs, Inc., San Diego, CA, USA).
The ability of benzoquinones to prevent excessive oxidation caused by ROS was tested using the commercially available OxiSelect™ Oxygen Radical Antioxidant Capacity (ORAC) Activity Assay kit (cat. no. STA-345, Cell Biolabs, Inc., San Diego, CA, USA), following the manufacturer’s protocol with slight adjustments concerning the antioxidant standard final concentrations. Stock solutions of benzoquinones were prepared in DMSO while 5 mM Trolox (used as an antioxidant standard) was provided by the manufacturer as a solution, and their further dilutions were carried out in 50% v/v acetone. Benzoquinones (50 µM) and Trolox (2.5–50 µM) were incubated with 1x Fluorescein Solution in 96-well black microplates at 37 °C for 30 min. After incubation time, Free Radical Initiator Solution was added. The sample reading was performed at 37 °C with an excitation wavelength of 480 nm and an emission wavelength of 520 nm. […] Net AUC values were compared to a Trolox standard curve and antioxidant capacity was presented as Trolox equivalent (TE) concentrations. All readouts were recorded on a plate reader (SpectraMax iD3, Molecular Devices, LLC, San Jose, CA, USA). Calculations were performed using the statistical package GraphPadPrism 8 (Graph Pad Inc, San Diego, CA, USA).
The ORAC assay was used to evaluate the ability of 1,4-benzoquinone derivatives to prevent oxidative damage caused by generation of ROS. In this assay, the quenching of the fluorescent probe (fluorescein) over time by the peroxyl radicals generated by the Free Radical Initiator Solution was monitored. Since the antioxidant capacity of benzoquinones correlates with the fluorescence decay, the peroxyl radical antioxidant activity of the selected compounds was determined by comparing the antioxidant standard curve of Trolox and was expressed as TE (Trolox equivalents)/µM [58].

[3] = parameters: method as in doi:10.2298/JSC220304044D; conditions: previous study ref 56; cited from earlier work
[4] = FRAP assay (ferric-reducing antioxidant power); conditions: 50 and 100 μM
Excerpt: All chemicals for FRAP antioxidant activity measurements were purchased from Sigma Aldrich (St. Louis, MO, USA), except for FeCl3 and tripyridyltriazine (TPTZ), which were purchased from Kemika, Zagreb, Croatia, and Fluka, Buchs, Switzerland, respectively.
A ferric-reducing antioxidant power (FRAP) assay was used to determine the antioxidant capacity of tested benzoquinones, following a slightly modified protocol by Benzie and Strain [41, 42]. The water-soluble derivative of vitamin E (Trolox) and butylated hydroxytoluene (BHT) were used as standard antioxidants. […] All absorbance readouts were recorded at 593 nm against a blank and corrected for the value of absorbance of corresponding benzoquinone alone. All measurements were performed in three independent experiments. FRAP values were calculated using a standard curve for FeSO4 × 7H2O. All readouts were recorded on a plate reader (SpectraMax iD3, Molecular Devices, LLC, San Jose, CA, USA).

[5] = target: T2, purified native human BChE (Homo sapiens, UniProt P06276); assay: biochemical; type: biochemical; conditions: for SI = Ki(AChE)/Ki(BChE): selectivity index
T2 construct: purified native human BChE; tissue gift of Dr Florian Nachon (IRBA, Brétigny-sur-Orge, France)

[6] = target: T3, human recombinant β-secretase (BACE1) (Homo sapiens, UniProt P56817); assay: Inhibition of BACE1 (spectrofluorimetric method); type: biochemical; conditions: 50 μM compound; three independent measurements ± SD
T3 construct: purchased Sigma Aldrich, St. Louis, MO, USA S4195
Protocol: For the determination of BACE1 activity, a human recombinant β-secretase (BACE1) (cat. no. S4195, Sigma Aldrich, St. Louis, MO, USA) as the source of the enzyme and 7-Methoxycoumarin-4-acetyl-[Asn670, Leu671]-Amyloid β/A4 Precursor Protein 770 Fragment 667–676(2,4-dinitrophenyl)Lys-Arg-Arg amide (cat. no. A1472, Sigma Aldrich, St. Louis, MO, USA) as the substrate were used. All measurements were conducted in 50 mM sodium acetate buffer (pH 4.5) with 0.005% Triton X-100. Commercially available β-secretase Inhibitor III (cat. no. 565780, EMD Millipore Corp., Billerica, MA, USA) was used as positive control.
BACE1 activity was determined using a slightly modified spectrofluorimetric method, as described in our previous work. Stock solutions of tested compounds were prepared in DMSO, and further dilutions were carried out in 50 mM sodium acetate buffer (pH 4.5) containing 0.005% Triton X-100. […] To eliminate any potential influence of benzoquinone and/or buffer on the intensity of fluorescence signal, non-enzymatic (buffer, substrate, and benzoquinones) and blank reactions (buffer and substrate only) were also measured and subtracted from inhibition and control reaction, respectively. As a positive control of BACE1 inhibition, commercially available β-secretase Inhibitor III (EMD Millipore Corp., Billerica, MA, USA) was used (5 µM), which inhibited over 90% of BACE1 activity, corresponding to the manufacturer’s data. All fluorescence signal readouts were recorded at room temperature (25 °C) at zero and two hours after incubation at 37 °C, on a plate reader (SpectraMax iD3, Molecular Devices, LLC, San Jose, CA, USA) with excitation at 320 nm and emission at 405 nm.

[7] = 400 μM compound (maximum concentration used), 0.1 mM ATCh

T2 sequence (P06276 29-602): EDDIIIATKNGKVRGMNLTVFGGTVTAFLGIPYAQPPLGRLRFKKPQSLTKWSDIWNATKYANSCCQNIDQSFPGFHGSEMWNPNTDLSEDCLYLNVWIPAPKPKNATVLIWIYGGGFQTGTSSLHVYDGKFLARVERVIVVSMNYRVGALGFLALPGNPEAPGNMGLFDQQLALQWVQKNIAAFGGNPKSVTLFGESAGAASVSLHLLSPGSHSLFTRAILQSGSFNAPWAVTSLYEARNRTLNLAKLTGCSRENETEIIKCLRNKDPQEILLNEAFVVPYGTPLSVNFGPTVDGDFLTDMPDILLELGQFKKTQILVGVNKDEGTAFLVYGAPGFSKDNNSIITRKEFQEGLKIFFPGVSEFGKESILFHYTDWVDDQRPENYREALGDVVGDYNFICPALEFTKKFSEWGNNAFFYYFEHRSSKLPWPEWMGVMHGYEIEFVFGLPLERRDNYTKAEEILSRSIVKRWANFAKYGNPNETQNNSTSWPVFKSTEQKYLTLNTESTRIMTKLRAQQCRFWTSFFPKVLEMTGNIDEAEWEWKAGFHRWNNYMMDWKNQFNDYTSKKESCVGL
T1 sequence (P22303 32-614): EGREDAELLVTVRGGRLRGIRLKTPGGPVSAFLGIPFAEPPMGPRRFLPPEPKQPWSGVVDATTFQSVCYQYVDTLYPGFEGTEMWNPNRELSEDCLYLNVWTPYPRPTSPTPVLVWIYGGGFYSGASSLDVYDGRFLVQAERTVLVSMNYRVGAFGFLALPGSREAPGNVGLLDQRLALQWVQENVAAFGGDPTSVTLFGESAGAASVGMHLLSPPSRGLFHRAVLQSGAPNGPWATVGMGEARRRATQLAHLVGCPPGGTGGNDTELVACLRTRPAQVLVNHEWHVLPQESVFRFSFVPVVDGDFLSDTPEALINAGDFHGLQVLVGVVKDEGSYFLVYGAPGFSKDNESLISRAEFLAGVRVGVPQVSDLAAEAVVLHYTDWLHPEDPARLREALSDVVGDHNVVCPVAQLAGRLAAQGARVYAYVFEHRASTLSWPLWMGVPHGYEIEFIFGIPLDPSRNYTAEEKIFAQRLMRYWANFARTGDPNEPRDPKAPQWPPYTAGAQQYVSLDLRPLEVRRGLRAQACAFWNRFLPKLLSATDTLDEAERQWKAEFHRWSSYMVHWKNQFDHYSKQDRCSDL
T3 sequence (P56817 46-501): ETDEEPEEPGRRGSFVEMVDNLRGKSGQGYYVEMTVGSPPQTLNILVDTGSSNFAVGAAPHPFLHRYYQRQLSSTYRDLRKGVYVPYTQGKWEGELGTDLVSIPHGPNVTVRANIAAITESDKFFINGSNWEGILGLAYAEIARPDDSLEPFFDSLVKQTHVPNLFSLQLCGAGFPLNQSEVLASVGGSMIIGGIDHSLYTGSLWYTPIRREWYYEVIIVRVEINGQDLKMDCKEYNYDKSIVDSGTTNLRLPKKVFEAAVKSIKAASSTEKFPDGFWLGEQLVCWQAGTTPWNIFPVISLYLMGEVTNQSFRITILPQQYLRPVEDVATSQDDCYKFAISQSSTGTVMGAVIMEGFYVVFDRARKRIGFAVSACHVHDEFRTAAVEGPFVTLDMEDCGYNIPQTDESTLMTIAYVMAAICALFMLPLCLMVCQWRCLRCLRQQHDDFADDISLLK

Row | Structure (SMILES) | ORAC value, TE (Trolox equivalents) [2] | SI = Ki(AChE)/Ki(BChE) [5] | Ki ([1]; read-out: AChE Ki) [µM] | Ki ([5]; read-out: BChE Ki) [µM] | inhibition at 50 µM [6] [%] | also measured
1 | CC(C)(C)C1=CC(=O)C=CC1=O [Compound 1, tert-butyl-1,4-benzoquinone] | 16.7 ± 0.1 µM | 0.95 |  |  |  | Ki [1]: 52 ± 6 µM; DPPH antioxidant activity relative to ascorbic acid [3]: approximately twice as potent as ascorbic acid; FRAP antioxidant activity compared to standard antioxidants Trolox and BHT [4]: approximately three times less potent than BHT; Ki [5]: 55 ± 5 µM
2 | CC(C)(C)C1=CC(=O)C=C(SCCO)C1=O [Compound 2] |  | 2.4 | 80 ± 7 | 33 ± 1 |  | AChE type of inhibition (in words) [1]: mixed
3 | CC(C)(C)C1=CC(=O)C(SCCO)=CC1=O [Compound 3] | 23.9 ± 1.6 µM | 6.5 | 57 ± 4 | 8.8 ± 0.8 | 5.7 | fold higher AChE inhibition potency than meta position counterpart [1]: approximately 1.7
4 | CC(C)(C)C1=CC(=O)C=C(SC2CCCC2)C1=O [Compound 4] |  | 1.9 | 56 ± 8 | 30 ± 6 |  | 
5 | CC(C)(C)C1=CC(=O)C(SC2CCCC2)=CC1=O [Compound 5] | 11.0 ± 0.3 µM | 5.6 | 29 ± 5 | 5.2 ± 0.7 | 11 ± 2 | AChE type of inhibition (in words) [1]: competitive; times less potent as inhibitor of AChE than donepezil [1]: ~1166; times less potent as inhibitor of AChE than galantamine [1]: about 54; fold higher AChE inhibition potency than meta position counterpart [1]: approximately 1.7
6 | CC(C)(C)C1=CC(=O)C=C(Sc2ccccc2)C1=O [Compound 6] |  | 7.6 | 136 ± 13 | 18 ± 4 |  | DPPH antioxidant activity relative to ascorbic acid [3]: approximately twice as potent as ascorbic acid
7 | CC(C)(C)C1=CC(=O)C=C(Sc2ccc(O)cc2)C1=O [Compound 7] | ≥50 µM | 1.6 | 37 ± 4 | 23 ± 2 | 16.7 ± 2.8 | 
8 | COc1ccc(SC2=CC(=O)C=C(C(C)(C)C)C2=O)cc1 [Compound 8] | 3.6 ± 0.6 µM | 2.9 | 85 ± 5 | 29 ± 3 |  | 
9 | CC(C)(C)C1=CC(=O)C=C(SCCc2ccccc2)C1=O [Compound 9] | 5.2 ± 0.0 µM | 0.96 | 24 ± 1 | 25 ± 3 | 27.4 | AChE type of inhibition (in words) [1]: non-competitive; times less potent as inhibitor of AChE than donepezil [1]: ~1166; times less potent as inhibitor of AChE than galantamine [1]: about 54
10 | CC(C)(C)C1=CC(=O)C=C(Sc2ccc3ccccc3c2)C1=O [Compound 10] | 9.3 ± 0.5 µM | 0.81 | 30 ± 3 | 37 ± 5 | 26.2 | AChE type of inhibition (in words) [1]: mixed-type
11 | CC(C)(C)C1=CC(=O)C2=C(SCCS2)C1=O [Compound 11] |  |  |  |  |  | DPPH antioxidant activity relative to ascorbic acid [3]: approximately twice as potent as ascorbic acid
12 | CNC1=CC(=O)C(C(C)(C)C)=CC1=O [Compound 12] |  |  |  | 228 ± 56 |  | AChE inhibition ([1]; any of the tested concentrations): did not inhibit AChE
13 | CNC1=CC(=O)C=C(C(C)(C)C)C1=O [Compound 13] |  |  |  |  |  | AChE inhibitory activity [1, 7]: did not show any inhibitory activity; BChE inhibitory activity [5, 7]: did not show any inhibitory activity
14 | CC(C)(C)C1=CC(=O)C(N2CCC[C@H]2C(=O)O)=CC1=O [Compound 14] | 19.7 ± 1.6 µM | 0.58 | 21 ± 1 | 36 ± 2 | 10.1 ± 2 | times less potent as inhibitor of AChE than donepezil [1]: ~1166; times less potent as inhibitor of AChE than galantamine [1]: about 54
15 | CC(C)(C)C1=CC(=O)C=C(N[C@@H](Cc2ccccc2)C(=O)O)C1=O [Compound 15] | 43.2 µM and 43.2 ± 1.6 µM | 1.7 | 59 ± 5 | 34 ± 2 | 15 ± 3.8 | 

From article PMC12384008, “Assessment of Biological Activity of Low Molecular Weight 1,4-Benzoquinone Derivatives” (Biomolecules, 2025)
